Measured values: publication PMC10482825 (Scientific Reports, 2023)

Test system: MRSA
Assay: Radial diffusion assay
Format: cell-based, Methicillin-resistant Staphylococcus aureus (ATCC, BAA-41)
Conditions: 5 µl of 500 µM per 3 mm well, 37 °C, mean ± SD
Description: The microbial strains used in this study were Bacillus subtilis (ATCC, 11774), Candida albicans (TIMM, 1768), Enterococcus faecalis (ATCC, 33186), Escherichia coli (ATCC, 11775), Klebsiella pneumoniae (ATCC, 13883), Methicillin-resistant Staphylococcus aureus (ATCC, BAA-41), Pseudomonas aeruginosa (ATCC, 10145), Salmonella enterica (ATCC, 14028), Serratia marcescens (ATCC, 13880), Staphylococcus aureus (ATCC, 25923) and Vibrio parahaemolyticus (ATCC, 17802). All microbial strains were cultivated overnight at 37 °C and 200 rpm, then subcultured and incubated for 3 h under the same incubation conditions to obtain the mid-logarithmic growth phase. The cultivated cells were washed twice with 10 mM Tris–HCl containing 5 mM D-glucose at pH 7.4 and suspended in the same buffer to be used in different assays, as previously described.
The antimicrobial activity spectra of the selected cryptides were screened against all the mentioned microbial pathogens, except V. parahaemolyticus, by radial diffusion assay as previously described, with slight modifications. […] The plates were then incubated for 18 h, and the antimicrobial activities were measured in the absolute unit (AU), as previously described. […]
plate. The plates were then incubated for 12 h at 37 °C and antimicrobial activities were measured in the term of absolute unit (A.U). […]

RHCLRSKRPPNVCPH [AD4, cationic cryptide from P. vannamei precursor DN34505 (Pl-crustin 2), chemically synthesised]
Antimicrobial activity (inhibition zone) MRSA: 12.2 ± 1.1 A.U.
